The METLIN SMRT retention time set (Domingo-Almenara et al. 2019)

Assay: gradient 5% acetonitrile 3 min, to 50% in 2 min, to 85% in 15 min, held 3 min, 100 µL/min
Conditions: column: Zorbax Extend-C18 2.1 x 50 mm; eluents: water / acetonitrile, 0.1% formic acid
How it was run: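 Data were gathered over 3 months by HPLC coupled to a quadrupole time-of-flight mass spectrometer, operated in positive and negative ionization mode. Mixtures of ~100 pure standards ran on a Zorbax Extend-C18 column (2.1 × 50 mm, 1.8 μm) at 100 μL/min, with water and acetonitrile each containing 0.1% formic acid and dead and dwell volumes of 40 μL and 900 μL. Retention time was read from adduct peaks picked by computer and checked manually.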

Row | Structure (SMILES) | RP-LC retention time
1 | COc1ccc(-c2noc(Cc3nnc(-c4cccc(C)c4)o3)n2)cc1F | 1040 s
2 | Cc1noc(-c2ccc(-n3cnc(C(=O)NC(C)c4ccc(F)cc4)c3)nc2)n1 (centres undefined) | 862 s
3 | COc1ccc(Cl)cc1NC(=O)N(C)CC1CCOCC1 | 816 s
4 | CCc1ccccc1S(=O)(=O)N1CCC(n2cnnc2CC)CC1 | 595 s
5 | CCOCCCNC(=O)c1c(N2CCCC2=O)c2cc(C)ccc2n1C | 782 s
6 | O=C(NCCc1cnc[nH]1)c1ccc2nc(CCc3ccccc3)oc2c1 | 641 s
7 | CC(C)Cn1c(CC2CCN(C(=O)c3n[nH]c4ccccc34)C2)nc2cccnc21 (centres undefined) | 627 s
8 | Cc1noc(C)c1S(=O)(=O)Nc1cccc(-c2nc(-c3cccc(Br)c3)co2)c1 | 1230 s
9 | Cc1ccccc1-c1noc(CN2C(=O)C(C)Oc3ccccc32)n1 (centres undefined) | 1110 s
10 | COc1ccc(S(=O)(=O)N2CCN(c3cc(C)nc(NC4CCCCC4)n3)CC2)cc1C | 848 s
11 | O=C(CC1CCCC1)NCC1(c2ccccc2)CCCOCC1 (centres undefined) | 872 s
12 | Cc1ccc(-c2nnc(-c3cccc(S(=O)(=O)N4CCC(C(=O)O)CC4)c3)o2)cc1 | 860 s
13 | CC1(C)CC(=O)c2cn(-c3ccc(F)cc3)c(=O)c(C(=O)N3CCc4ccccc43)c2C1 | 954 s
14 | CCOc1ccc(NC(=O)Cn2nc(N3CCCC3)c3ccccc3c2=O)cc1 | 809 s
15 | O=C(c1sc2cccc(F)c2c1Cl)N1CCN(c2ncccn2)CC1 | 893 s
16 | COc1ccccc1OCC(=O)NCC1CCOCC1 | 675 s
17 | O=C(NCc1ccncc1)c1ccc(-c2cccs2)nc1 | 588 s
18 | Cc1ccc(-c2[nH]ncc2CN2C[C@@H](CO)[C@H](c3ccncc3)C2)cc1 | 604 s
19 | CC(C)Oc1ccc(-c2noc(-c3nn(-c4ccc(Cl)cc4)ccc3=O)n2)cc1 | 1060 s
20 | CN(CCc1noc(COc2ccccc2)n1)C(=O)Nc1cccc(Br)c1 | 964 s

Row | Structure (SMILES) | RP-LC retention time
21 | Cc1cc(C)cc(NC(=O)Cn2c(C)nc3onc(C)c3c2=O)c1 | 802 s
22 | COc1ccc(Cl)cc1N1CC(c2nc3ccccc3n2CC(=O)N2CCOCC2)CC1=O (centres undefined) | 662 s
23 | O=C(Cc1ccc(-c2ccc(OCCN3CCOCC3)cc2)cn1)NCc1ccccc1 | 621 s
24 | COc1ccc(-c2noc(C3CCCN3C(=O)c3cccc(F)c3)n2)cc1 (centres undefined) | 946 s
25 | COc1ccc(NC(=O)N2CCC3(CC2)NC(=O)c2ccccc2O3)cc1 | 712 s
26 | CCN(CC)S(=O)(=O)c1ccc2c(c1)cc(C(=O)N1CCN(c3ncccn3)CC1)n2C | 880 s
27 | CCn1c(=O)sc2cc(S(=O)(=O)N3CCC(C(=O)NC4CCC(C)CC4)CC3)ccc21 (centres undefined) | 967 s
28 | CCCN(C)C(=O)C1CCN(c2cn[nH]c(=O)c2)CC1 | 597 s
29 | Cc1ccc(NC(=O)C2CCCN2S(=O)(=O)c2cc3c(cc2C)NC(=O)C(C)O3)c(Cl)c1 (centres undefined) | 914 s
30 | CCN(Cc1ccccc1)S(=O)(=O)c1ccc2c(c1)CCCC(=O)N2 | 856 s
31 | COc1cccc(-c2nc(COc3cc(C)c4c(C)nn(C)c4n3)c(C)o2)c1OC | 1070 s
32 | CCN1C(=O)Cc2ccccc2C1C(=O)NCc1cccs1 (centres undefined) | 716 s
33 | COc1ccc(CC(C)(O)CNC(=O)c2cc(C)oc2C)cc1 (centres undefined) | 739 s
34 | Cc1nc(Nc2ccc(F)cn2)sc1C(=O)N1CCN(c2ccc(F)cc2)CC1 | 861 s
35 | COc1ccc2c(c1)C1(CCN(C(=O)Cc3ccc(C)cc3)C1)C(=O)N2 (centres undefined) | 757 s
36 | CCOc1ccc(-c2noc(CN3C(=O)COc4ccc(S(=O)(=O)CC)cc43)n2)cc1OC | 873 s
37 | Cc1ccc2c(Nc3ccc(O)cc3)c(C(=O)OC(C)C)cnc2n1 | 640 s
38 | O=C1CC(c2nc(-c3cccc(Cl)c3)no2)CN1c1ccc2c(c1)OCO2 (centres undefined) | 1030 s
39 | CCCCn1c(=O)c2ccccc2n(Cc2nc(-c3ccc(SC)cc3)no2)c1=O | 1250 s
40 | CCOC(=O)c1cnc(N2CCN(Cc3ccc4c(c3)OCO4)CC2)[nH]c1=O | 605 s

The next lines start with the values.

Row | RP-LC retention time | Structure (SMILES)
41 | 758 s | CCOC(=O)C(CC)SC1=NS(=O)(=O)c2cc(F)ccc2N1 (centres undefined)
42 | 639 s | CCN1CCN(C(=O)CN2c3ccc(F)cc3-c3ccccc3S2(=O)=O)CC1
43 | 972 s | C=C1C(=O)O[C@@H]2[C@H]3O[C@]3(C)CC/C=C(/C)CC[C@@H]12
44 | 617 s | CCCNC(=O)c1ccc2nc(CCc3ccc(NC(=O)C(C)C)cc3)[nH]c2c1
45 | 790 s | CN(C)c1ccc(C(=O)NC2CCN(c3cc(-c4ccc(Cl)cc4)[nH]n3)C2)cc1 (centres undefined)
46 | 1050 s | Cc1ccc(N2C(=O)N(Cc3ccccc3F)S(=O)(=O)c3cccnc32)cc1
47 | 1010 s | Cc1cc(C)cc(NS(=O)(=O)c2cc(-c3nc(C)cs3)cs2)c1
48 | 894 s | O=C(c1ccc2ccnc(N3CCN(c4ccc(Cl)cc4)CC3)c2c1)N1CCCCC1
49 | 1380 s | COc1ccc(-n2c(=O)c(C(=O)NC3CCCCCC3)c(O)c3cccnc32)cc1
50 | 616 s | CN1CCN(CCCNC(=O)c2cc3occc3c(Nc3ccc(F)cc3)n2)CC1
51 | 831 s | CC(=O)c1cccc(NC(=O)Cn2cccc2-c2nnc(C3CCC3)o2)c1
52 | 652 s | CCCNC(C)C(=O)Nc1c(C)csc1C(=O)OC (centres undefined)
53 | 730 s | CCOc1ccc2nc(N3CCCC(C(=O)NCCc4ccc(S(N)(=O)=O)cc4)C3)sc2c1 (centres undefined)
54 | 819 s | Cc1cccc(C)c1NC(=O)Cn1c(=O)nc(N2CCC(C)CC2)c2ccccc21
55 | 859 s | COc1cc(CNS(=O)(=O)c2cn(C(C)C)c3ncccc23)cc(OC)c1
56 | 790 s | Cc1cccc(C2=NC3(CCN(C(=O)Nc4ccc5c(c4)OCO5)CC3)NC2=O)c1
57 | 548 s | CC(C)CN1C(=O)c2cccn2CC1C(=O)NCCCN1CCN(C)CC1 (centres undefined)
58 | 1050 s | Cc1nn(C)c2nc(OC(C)C(=O)Nc3ccccc3F)cc(C(F)(F)F)c12 (centres undefined)
59 | 639 s | Cc1ccc(C(=O)NCC(=O)Nc2nc3ccccc3[nH]2)c(C)c1
60 | 770 s | CCNc1nc(C)cc(N2CCN(S(=O)(=O)c3ccc(Cl)c(Cl)c3)CC2)n1
61 | 594 s | O=C(NCc1cc(F)cc(F)c1)c1ccc2c(c1)ncn2CCN1CCCC1
62 | 1110 s | CCc1ccccc1-n1c(-c2ccc(Cl)cc2)cn2c3c(=O)n(C)c(=O)n(C)c3nc12
63 | 726 s | COc1ccc(Cl)cc1NC(=O)c1cn2c(n1)CCCC2
64 | 1110 s | Cc1ccc(-n2c(=O)c3sccc3n(Cc3nc(-c4ccc(Br)cc4)no3)c2=O)cc1
65 | 679 s | CCCNC(=O)C1CCCN(c2nc3ncn(CC(=O)Nc4ccccc4F)c(=O)c3s2)C1 (centres undefined)

Row | RP-LC retention time | Structure (SMILES)
66 | 612 s | CCCCC(=O)Nc1ccc(-c2cn3ccc(C)nc3n2)cc1
67 | 613 s | Cn1ccc(C(=O)Nc2ccc(S(C)(=O)=O)cc2)n1
68 | 716 s | CC(=O)c1ccc(N2CCN(C(=O)CN3C(=S)NC(C)(C)CC3C)CC2)cc1 (centres undefined)
69 | 1110 s | Cc1cccc(N2CCN(c3ccc4cc(S(=O)(=O)N5CCCCC5)ccc4n3)CC2C)c1 (centres undefined)
70 | 590 s | CSc1cccc2sc(NCc3cccnc3)nc12
71 | 948 s | O=C(C1CCC1)N1CCc2sc(S(=O)(=O)NCc3ccc(F)cc3Cl)cc2C1
72 | 636 s | CO/N=C1/CN(c2nc3c(cc2F)c(=O)c(C(=O)O)cn3C2CC2)CC1CN (centres undefined)
73 | 553 s | COc1ccc2c(c1)c(CN1CCC(C(=O)NCCN3CCOCC3)CC1)cn2C
74 | 944 s | O=C(C1CCN(c2nc3ccc(-c4ccc(F)cc4)nc3s2)CC1)N1CCCC1
75 | 617 s | COCCNC(=O)C1CCN(c2ncnc3c2oc2ccccc23)CC1
76 | 804 s | COC(=O)c1ncn2c1C(=O)N(Cc1ccccc1Cl)C(C)(C(=O)NC1CCCCC1)C2 (centres undefined)
77 | 662 s | CCC(=O)N1CCc2cc(C(=O)N3CCN(C(=O)c4ccco4)CC3)ccc21
78 | 736 s | CCCNc1cc(N2CCC(CCC(=O)Nc3ccc(OCC)cc3)CC2)ncn1
79 | 658 s | CNC(=O)C1CCN(C(=O)Nc2ccc(NC(=O)Nc3ccc(C)cc3)cc2)CC1
80 | 934 s | COC(=O)c1ccc(NC(=O)Cn2cccc(-c3nc(-c4ccc(Cl)cc4)no3)c2=O)cc1
81 | 799 s | Cc1nc(C)c(C(=O)Nc2ccc(F)cc2C)s1
82 | 753 s | CCn1ccc2c(cc(C(=O)Nc3ccc(C)cc3C)n2C)c1=O
83 | 599 s | O=C(CN1CCN(Cc2ccccc2)C1=O)NC1CCN(Cc2ccccc2)CC1
84 | 526 s | CC(C)CN1CCn2cc(C(=O)N3CCN(c4ccccn4)CC3)nc2C1
85 | 970 s | CCOc1ccccc1OCc1nn2c(-c3ccoc3C)nnc2s1
86 | 554 s | CCC1(O)CCOC2(CCN(Cc3ccncc3F)CC2)C1 (centres undefined)
87 | 643 s | O=C(CS(=O)Cc1cnn(-c2ccccc2)c1-n1cccc1)N1CCN(C2CCCCC2)CC1 (centres undefined)
88 | 1010 s | Brc1c(Br)c(Br)c2n[nH]nc2c1Br
89 | 915 s | COc1ccc(C(=O)N2CCC(COCc3ccccc3)CC2)cc1
